Test results reported in the NIST ThermoML archive (doi:10.1016/j.fluid.2010.12.008).
± gives the expanded uncertainty stated by the source.

How the values were obtained:
[1] = for Normal melting temperature: Crystal 1
[2] = Molar enthalpy of transition or fusion; conditions: DSC

Q: For CCCC[N+]1(C)CCCCC1.N#C[S-] [1-butyl-1-methylpiperidinium thiocyanate], which Normal melting temperature ([1]; DTA) is on record?
A: 31.17 ± 0.5 °C

Q: And the Triple point temperature ([1]; Crystal 2, DTA)?
A: 274.2 ± 0.5 K

Q: And the Glass transition temperature ([1]; Glass, DTA)?
A: -71.8 ± 10 °C

Q: What about the “Molar enthalpy of transition or fusion” value ([2]; Crystal 1) of the same molecule?
A: 0.722 ± 0.0478 kcal/mol

Q: And the “Molar enthalpy of transition or fusion” value ([2]; Crystal 2)?
A: 3.65 ± 0.117 kcal/mol

Q: For CCCCCCCO [heptan-1-ol], which Normal melting temperature ([1]; visual observation) is on record?
A: -34.60 ± 1.1 °C

Q: With O [water] as the molecule, how does the Normal melting temperature ([1]; visual observation) read?
A: 0.00 ± 1.1 °C

Q: For CCCCCCCCCCO [decan-1-ol], which Normal melting temperature ([1]; visual observation) is on record?
A: 7.00 ± 1.1 °C

Q: With CCCCCCO [hexan-1-ol] as the molecule, how does the Normal melting temperature ([1]; visual observation) read?
A: -45.00 ± 1.1 °C

Q: Which Normal melting temperature ([1]; DTA) does the source give for CC[N+]1(C)CCCCC1.O=S(=O)([N-]S(=O)(=O)C(F)(F)F)C(F)(F)F here?
A: 84.89 ± 0.5 °C

Q: And the Normal melting temperature ([1]; visual observation)?
A: 84.56 ± 0.5 °C

Q: And the Triple point temperature ([1]; Crystal 2, visual observation)?
A: 289.6 ± 0.5 K

Q: What about the Triple point temperature ([1]; Crystal 3, DTA) of the same molecule?
A: 215.8 ± 0.5 K

Q: And the “Molar enthalpy of transition or fusion” value ([2]; Crystal 1)?
A: 3.97 ± 0.124 kcal/mol

Q: And the “Molar enthalpy of transition or fusion” value ([2]; Crystal 2)?
A: 0.844 ± 0.0454 kcal/mol

Q: What about the “Molar enthalpy of transition or fusion” value ([2]; Crystal 3) of the same molecule?
A: 0.586 ± 0.0406 kcal/mol

Q: For CCCCCCCCCCCCO [dodecan-1-ol], which Normal melting temperature ([1]; visual observation) is on record?
A: 24.00 ± 1.1 °C

Q: Which Normal melting temperature ([1]; visual observation) does the source give for CCCCCCCCO [octan-1-ol] here?
A: -16.00 ± 1.1 °C
